Results on six molecules are retold here after article PMC9867837 (Cancer letters, 2022).

Data set [1] has as its target T1, Stat1:Stat3 DNA-binding activity (Mus musculus, UniProt P42227).
T1 construct: endogenous in cells; host or cells: EGF-stimulated NIH3T3/hEGFR fibroblasts (nuclear extract)
Description: EMSA of Stat1:Stat3 DNA-binding activity in nuclear extracts of EGF-stimulated NIH3T3/hEGFR. It is filed as biochemical. The note with it: Fig. 1C, hSIE probe, 30 min. How it is done:
(§1) Details are presented in Supplementary Information, “Methods”. […]
(§2) min, prior to incubation with the radiolabeled probe for 30 min at 30 °C and subjecting to EMSA analysis.
(§3) In another case, the nuclear extract was pre-incubated with the radiolabeled probe for 30 min at 30 °C prior to incubation with increasing concentration of H182 at room temperature for 30 min and subjecting to EMSA analysis. Bands corresponding to Stats DNA- binding activities were scanned and quantified using ImageJ and plotted as a percentage of control (vehicle) against the concentration of the inhibitor, from which the IC50 values were derived .
Background: A gel shift assay detects complexes by their altered migration in electrophoresis.

The target of data set [2] is T2, Stat1:Stat1 DNA-binding activity (Mus musculus, UniProt P42225).
T2 construct: endogenous in cells; host or cells: EGF-stimulated NIH3T3/hEGFR fibroblasts (nuclear extract)
T2 sequence (P42225 2-749 limits assumed): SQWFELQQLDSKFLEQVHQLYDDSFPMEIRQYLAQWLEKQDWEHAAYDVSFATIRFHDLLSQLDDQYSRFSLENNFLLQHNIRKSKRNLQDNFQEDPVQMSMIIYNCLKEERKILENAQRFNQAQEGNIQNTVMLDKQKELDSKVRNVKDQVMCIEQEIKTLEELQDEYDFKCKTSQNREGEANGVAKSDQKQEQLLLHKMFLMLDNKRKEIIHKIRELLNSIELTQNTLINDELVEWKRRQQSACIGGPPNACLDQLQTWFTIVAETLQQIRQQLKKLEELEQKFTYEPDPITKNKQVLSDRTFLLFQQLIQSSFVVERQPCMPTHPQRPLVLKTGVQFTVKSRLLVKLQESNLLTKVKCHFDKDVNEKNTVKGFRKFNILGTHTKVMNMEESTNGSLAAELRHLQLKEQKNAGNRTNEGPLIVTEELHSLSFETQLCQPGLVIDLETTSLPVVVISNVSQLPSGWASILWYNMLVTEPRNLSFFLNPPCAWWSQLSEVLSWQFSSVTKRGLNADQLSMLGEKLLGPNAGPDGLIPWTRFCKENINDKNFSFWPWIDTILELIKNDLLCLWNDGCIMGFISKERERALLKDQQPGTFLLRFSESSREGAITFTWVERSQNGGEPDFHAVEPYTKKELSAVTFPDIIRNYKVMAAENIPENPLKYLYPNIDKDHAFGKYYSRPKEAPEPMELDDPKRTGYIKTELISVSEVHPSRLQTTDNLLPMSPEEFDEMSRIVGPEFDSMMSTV
Description: EMSA of Stat1:Stat1 DNA-binding activity in nuclear extracts of EGF-stimulated NIH3T3/hEGFR. The data set is classed as biochemical. Particulars: Fig. 1C, 30 min. On the procedure: (§4) These studies were carried out as previously described using the ^32P-labeled oligonucleotide probes, hSIE (high affinity sis-inducible element from the c-fos gene, m67 variant, 5^′-[…]) that binds Stat1 and Stat3 [11, 12] and the mammary gland factor element (MGFe) from the bovine β–casein gene promoter (sense strand, 5^′-[…]) that binds Stat5 and Stat1 [11, 12]. Details are presented in Supplementary Information, “Methods”. […]
as §2, §3

The test system of a further data set is MDA-MB-468 cells. As to the kind of experiment: CyQuant viable cell number assay, MDA-MB-468. It is filed as cell-based, human. Particulars: Homo sapiens, MDA-MB-468, 72 h, read-out: IC50 viable cell numbers, MDA-MB-468. On the procedure: (§5) CyQuant assay was performed to evaluate compounds as previously reported. Details are presented in Supplementary Information, “Methods”. […]
(§6) 1.2.6. Cell viability assays
(§7) CyQuant assay was performed to evaluate compounds as previously reported [1 -3] . Briefly, cells (5 x 10^3 per well, 100 µl) in culture in 96-well plates were treated once with 0 -10 µM concentrations of H120, H105, […]
(§8) concentration of H182 for 6 h and then treated with 0- 100 nM docetaxel or 0-20 µM cisplatin for a total of 72 h. Viable cell numbers were assessed by a CyQuant cell proliferation kit according to the manufacturer’s instructions (Thermo/Life Technologies Corp, Carlsbad, CA). Viable cell numbers were normalized to that of DMSO (control)-treated samples. […]

The test system of the next data set is MDA-MB-231 cells. Description: CyQuant viable cell number assay, MDA-MB-231. The data set is classed as cell-based, human. How it is done: as §5, §6, §7, §8
The target in data set [3] is T3, Stat3:Stat3 DNA-binding activity (Mus musculus, UniProt P42227).
T3 construct: endogenous in cells; host or cells: NIH3T3/v-Src fibroblasts; EGF-stimulated NIH3T3/hEGFR fibroblasts (nuclear extracts)
As to the kind of experiment: EMSA of Stat3:Stat3 DNA-binding activity in nuclear extracts. The data set is classed as biochemical. The note with it: for Stat3-inhibitory potency on replacing the para-fluorine: EMSA. How it is done:
as §1, §2, §3

Data set [4] addresses Stat5:Stat5 DNA-binding activity. Description: EMSA of Stat5:Stat5 DNA-binding activity in nuclear extracts of EGF-stimulated NIH3T3/hEGFR. The data set is classed as biochemical, mouse. The note with it: Fig. 1C, MGFe probe, 30 min. How it is done: as §4, §2, §3
The target in data set [5] is SH2 domain of pure recombinant Stat3 (Homo sapiens, UniProt P40763). Description: Stat3 fluorescence polarization (FP) assay. The data set is classed as binding. The note with it: 0–10 μM, 5-carboxyfluorescein-GpYLPQTV-NH2 probe. How it is done: Details are presented in Supplementary Information, “Methods”.
The Stat3:azetidine compound interaction was investigated further by focusing on how the compounds might interfere with Stat3 dimerization (Stat3:Stat3), which occurs via pTyr peptide:SH2 domain interaction. […]
confocal microscope (Stellaris 8-STED Super -resolution , Germany) with a 60x oil lens and images were processed by ImageJ software.
1.2.9. Fluorescence polarization assay (FP)
These studies were conducted as previously reported using the labeled phosphopeptide, 5-carboxyfluorescein GpYLPQTV-NH 2 (where pY represents phospho-Tyr) as probe and purified recombinant Stat3, with some modifications. […]
10 µM of unlabeled GpYLPQTV-NH 2 (positive control) or H182 at 30 °C for 30 min in the indicated assay buffer conditions, prior to the addition of the labeled probe at 10 nM final concentration and incubated for 30 min at room temperature, and thereafter reading the FP signal at 10, 30, and 60 min using the SpectraMax ID5 (Molecular Devices, San Jose, CA), with the set gain adjustment at 35 mP. In some cases, the recombinant His-Stat3 was pre-incubated with the unlabeled GpYLPQTV-NH 2 or H182 at 0-10 µM for 10 min or at 0-50 µM for 30 min prior to incubation with the labeled probe, and thereafter reading the FP signal at 10, 30, or 60 min using the SpectraMax ID5, with the set gain adjustment at 35 mP.
1.2.10. […]

Data set [6] concerns MDA-MB-231 tumor xenografts. As to the kind of experiment: Subcutaneous MDA-MB-231 xenografts in athymic nude mice. The data set is classed as in vivo. How it is done: Mice were housed in specific pathogen-free conditions in the animal facility. All animal experiments were conducted in accordance with the recommendations in the Guide for the Care and Use of Laboratory Animals on a protocol approved by the Institutional Animal Care and Use Committee (IACUC). Subcutaneous xenograft studies were performed as previously reported. Five-week-old female athymic nude mice were purchased from Envigo (Indianapolis, IN) or Charles River (Wilmington, MA) and maintained in the institutional animal facilities approved by the American Association for Accreditation of Laboratory Animal Care. […] Tumor sizes were monitored every 3–4 days, measured with calipers, and converted to tumor volume, V, according to the formula V = 0.52 × a^2 × b, where a, smallest superficial diameter, and b, largest superficial diameter. For each treatment group, the tumor volumes for each set of measurements were statistically analyzed relative to the control (DMSO-treated; 70% DMSO with sterile PBS) group.
Constitutively-active Stat3 promotes primary tumor development and the progression to therapy resistance. We proceeded to evaluate the in vivo antitumor efficacy against tumor growth in both human xenograft and mouse syngeneic models of TNBC. In four separate studies, we tested the efficacy of H182, H278 (HCl salt of H182), and H120. For these xenografts, the human breast cancer, MDA-MB-231 cells were injected subcutaneously into athymic nude mice. When tumors were palpable (80–120 mm^3), mice were grouped so that the mean tumor sizes were identical between groups and treated as follows: A) intraperitoneal (IP) injections of H182 at 10 mg/kg every other day for 33 days; B) oral gavage of H182 every day at 5 mg/kg for 20 days, and then increased to 20 mg/kg for additional 12 days; and C) oral gavage of H120 at 20 mg/kg, daily for 14 days, and then increased to 30 mg/kg, daily for additional 14 days.

Where [7] appears, read: first Stat1:Stat1 value listed (hSIE probe).
[8] abbreviates: second Stat1:Stat1 value listed (MGFe probe).
[9] abbreviates: Homo sapiens, MDA-MB-231, read-out: IC50 viable cell numbers, MDA-MB-231, CyQuant, 72 h.
[10] abbreviates: Fig. 1C, extracts of EGF-stimulated NIH3T3/hEGFR, hSIE probe, 30 min, read-out: IC50 Stat3:Stat3.
Where [11] appears, read: range over the named compounds and incubation times, read-out: IC50 Stat3 DNA-binding activity in vitro (summary range).
Where [12] appears, read: Table 1, replacement of p-fluorine (R1), read-out: EMSA IC50.

Like-named read-outs stand apart in the source and are kept apart here. Non-standard residues stand in square brackets, D forms with d. No end group written: not given here. pY = N[C@@H](Cc1ccc(OP(=O)(O)O)cc1)C(=O)O

T3 sequence (P42227 2-770 limits assumed): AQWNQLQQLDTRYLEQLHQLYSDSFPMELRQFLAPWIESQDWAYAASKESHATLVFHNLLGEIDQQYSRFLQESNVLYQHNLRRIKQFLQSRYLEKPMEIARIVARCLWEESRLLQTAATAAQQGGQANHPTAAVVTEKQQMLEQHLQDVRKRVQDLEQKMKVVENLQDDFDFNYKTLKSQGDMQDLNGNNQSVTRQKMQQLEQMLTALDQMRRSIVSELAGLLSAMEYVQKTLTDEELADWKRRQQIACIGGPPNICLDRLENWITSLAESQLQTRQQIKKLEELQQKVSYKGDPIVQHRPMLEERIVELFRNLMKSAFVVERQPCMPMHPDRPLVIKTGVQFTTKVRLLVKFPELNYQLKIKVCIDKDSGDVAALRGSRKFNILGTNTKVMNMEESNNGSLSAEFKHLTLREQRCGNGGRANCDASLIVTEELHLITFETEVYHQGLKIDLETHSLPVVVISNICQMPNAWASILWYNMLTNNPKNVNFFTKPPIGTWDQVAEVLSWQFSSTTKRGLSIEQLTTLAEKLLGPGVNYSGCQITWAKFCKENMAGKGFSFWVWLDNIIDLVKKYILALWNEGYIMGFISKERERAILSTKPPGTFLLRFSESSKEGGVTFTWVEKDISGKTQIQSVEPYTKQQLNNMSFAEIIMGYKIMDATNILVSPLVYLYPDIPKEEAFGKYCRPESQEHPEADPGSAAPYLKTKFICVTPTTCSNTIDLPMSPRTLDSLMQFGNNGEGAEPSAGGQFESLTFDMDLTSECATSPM
T1 sequence (P42227 2-770 limits assumed, one chain of several): as the sequence (P42227 2-770 limits assumed) above
SH2 domain of pure recombinant Stat3, sequence (P40763 whole entry, the tested form may be a part): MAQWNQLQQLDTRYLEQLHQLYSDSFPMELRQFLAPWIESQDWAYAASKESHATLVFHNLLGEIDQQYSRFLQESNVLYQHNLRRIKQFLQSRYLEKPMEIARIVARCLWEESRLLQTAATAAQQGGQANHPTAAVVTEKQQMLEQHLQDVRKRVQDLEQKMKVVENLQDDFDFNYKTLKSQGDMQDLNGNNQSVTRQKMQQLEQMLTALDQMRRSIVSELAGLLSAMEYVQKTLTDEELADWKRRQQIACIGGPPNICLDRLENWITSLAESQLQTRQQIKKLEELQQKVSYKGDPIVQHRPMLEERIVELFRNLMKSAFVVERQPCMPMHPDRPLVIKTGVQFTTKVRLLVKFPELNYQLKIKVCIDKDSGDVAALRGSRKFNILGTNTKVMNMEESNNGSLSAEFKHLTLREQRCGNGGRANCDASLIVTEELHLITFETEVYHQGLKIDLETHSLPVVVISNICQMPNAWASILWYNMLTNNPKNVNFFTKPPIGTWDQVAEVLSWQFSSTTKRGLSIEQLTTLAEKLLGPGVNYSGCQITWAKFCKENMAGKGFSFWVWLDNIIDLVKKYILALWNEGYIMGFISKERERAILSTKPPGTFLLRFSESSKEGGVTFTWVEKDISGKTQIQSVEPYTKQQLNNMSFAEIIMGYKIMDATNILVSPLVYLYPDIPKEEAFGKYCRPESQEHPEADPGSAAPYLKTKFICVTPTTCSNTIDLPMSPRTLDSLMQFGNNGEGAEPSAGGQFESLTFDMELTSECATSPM

`O=C(NO)c1ccc(N(Cc2ccc(C3CCCCC3)cc2)C(=O)[C@H]2CCN2S(=O)(=O)c2c(F)c(F)c(F)c(F)c2F)c(F)c1` [Compound H105]: the IC50 in data set [1] was 8.3 µM; in data set [2] (setting [7]) it was 15.8 µM; in data set [2] (setting [8]), over 20 µM; in the data set on MDA-MB-468 cells, 2.6 to 3.6 µM; with MDA-MB-231 cells (setting [9]), 2.6 to 3.6 µM; in data set [3] (setting [10]), 1.8 µM. Besides, the IC50 in data set [3] (setting [11]) was 1.75 to 2.07 µM; in data set [4] it was 20 µM.

Consider “GpYLPQTV-NH2 (G[pY]LPQTV-NH2) [reference compound]”, for which the “Effect on FP signal” value in data set [5] is “dose-dependent reduction of the FP signal down to the baseline of 45–50 mP”.

As to `O=C(O)c1ccc(N(Cc2cnc(C3CCCCC3)cn2)C(=O)[C@H]2CCN2S(=O)(=O)c2c(F)c(F)c(Cl)c(F)c2F)cc1O` [Compound H186], in data set [3], the “Stat3-inhibitory potency on replacing the para-fluorine” value is recorded as “loss of Stat3-inhibitory potency”. Further, the IC50 in data set [3] (setting [12]) is over 30 µM.

For `O=C(O)c1ccc(N(Cc2cnc(C3CCCCC3)cn2)C(=O)[C@H]2CCN2S(=O)(=O)c2c(F)c(F)cc(F)c2F)cc1O` [Compound H176], the “Stat3-inhibitory potency on replacing the para-fluorine” value in data set [3] is on record as “loss of Stat3-inhibitory potency”. For the same molecule, the concentration for half-maximal inhibition (IC50) in data set [3] (setting [12]) was over 30 µM.

With `N.N.[Cl][Pt][Cl]` [cisplatin, reference compound], the IC50 in the data set with MDA-MB-231 cells (MDA-MB-231, DMSO or 1 μM H182 pre-treatment 6 h, then docetaxel or cisplatin, total 72 h, read-out: IC50 of chemotherapeutic agent alone or with H182) was 7 µM.

Take `O=C(NO)c1ccc(N(Cc2ccc(C3CCOCC3)cc2)C(=O)[C@H]2CCN2S(=O)(=O)c2c(F)c(F)c(F)c(F)c2F)cc1O` [Compound H120]: the IC50 in data set [1] was 7.2 µM; in data set [2] (setting [7]), over 20 µM; in data set [2] (setting [8]), over 20 µM; with MDA-MB-468 cells it was 2.6 to 3.6 µM; in the data set on MDA-MB-231 cells (setting [9]), 2.6 to 3.6 µM; in data set [3] (setting [10]), 2.1 µM. Moreover, the half-maximal inhibitory concentration (IC50) is 1.75 to 2.07 µM in data set [3] (setting [11]) and over 20 µM in data set [4]. Also, the “Tumor growth, MDA-MB-231 xenografts” value in data set [6] (H120 oral gavage daily 20 mg/kg for 14 days, then 30 mg/kg for 14 days) is “significant tumor growth inhibition”. Besides, in data set [6] (the three xenograft studies), the “Body weights and obvious signs of toxicity” value is listed as “No notable changes”.

As usually defined, the IC50 is the midpoint of a concentration-inhibition curve.
